Results taken from article PMC7600788, “Sequence Permutation Generates Peptides with Different Antimicrobial and Antibiofilm Activities” (Pharmaceuticals, 2020).
Read-outs that look alike come from different tables or passages of the source. No end group written: not given here.

Experiments:
S. aureus Mu50 = assay type: cell-based, Staphylococcus aureus
Description: (§1) The antimicrobial activity spectrum of the WW peptide series was performed on a panel of Gram-positive and -negative bacteria using the standard broth micro-dilution method with minor modifications as described. […] There was a small change in the case of Pseudomonas aeruginosa and Acinetobacter baumannii up to two-fold. Four-fold changes were found for Staphylococcus aureus, Staphylococcus epidermidis, Escherichia coli, and Bacillus subtilis. However, we observed over eight-fold MIC changes for Klebsiella pneumoniae and vancomycin-resistant enterococcus (VRE). […] We also observed more than eight-fold changes in minimal bacterial killing concentrations.
(§2) The antibacterial activity of peptides was evaluated using a standard broth microdilution protocol with minor modifications as previously described. In brief, logarithmic phase bacterial cultures (i.e., optical density at 600 nm ≈ 0.5) were diluted to OD600~0.001 and partitioned into a 96-well polystyrene microplate at 90 μL per well. After treatment with 10 μL of peptide solutions two-fold diluted to various concentrations, microplates were incubated at 37 °C overnight and read on a ChroMate 4300 Microplate Reader at 630 nm (GMI, Ramsey, MN). […] Minimal bactericidal concentration (MBC) was determined by plating the clear wells at MIC or above. The peptide concentration that caused no bacterial growth on the petri dish is MBC.

E. coli ATCC 25922 = assay type: cell-based, Escherichia coli
Description: (§3) To gain additional insight, we also compared the effects of physiological saline and human serum on the antibacterial activities of WW291-WW298 using both E. coli and S. aureus (Table 3). In our assays, salts and serum were present during the entire course of the experiment. […] Thus, WW295 and WW298 stand out in terms of activity robustness (bold in Table 3).
as §2

S. aureus USA300 = assay type: cell-based, Staphylococcus aureus
Description: as §2

B. subtilis 167 = assay type: cell-based, Bacillus subtilis
Description: as §1, §2

S. aureus USA300 LAC = assay type: cell-based, Staphylococcus aureus
Description: as §3, §2

chicken red blood cells = assay: Hemolytic assay; assay type: cell-based
Description: (§4) Hemolytic assays of peptides were performed as previously described. Briefly, human red blood cells (hRBCs) obtained from UNMC Blood Bank, or chicken or porcine blood cells purchased from commercial sources as previously described, were washed three times with phosphate buffer saline (PBS) and diluted to a 2% solution (V/v). After peptide treatment, incubation at 37 °C for one hour, and centrifugation at 13,000 rpm, aliquots of the supernatant were carefully transferred to a fresh 96-well microplate. The amount of hemoglobin released was measured at 545 nm. The percent lysis was calculated by assuming 100% release when human blood cells were treated with 2% Triton X-100, and 0% release when incubated with PBS buffer. The peptide concentration that caused 50% lysis of hRBCs is defined as HC50.

Pig RBC = assay: Hemolytic assay; assay type: cell-based
Description: as §4

human red blood cells = assay: Hemolytic assay; assay type: cell-based
Description: as §4

E. coli K12 = assay type: cell-based, Escherichia coli
Description: as §1, §2

P. aeruginosa PAO1 = assay type: cell-based, Pseudomonas aeruginosa
Description: as §1, §2

[1] = tested on: PMA differentiated THP-1 cells; assay: MTS cytotoxicity assay; assay type: cell-based; settings: PMA differentiated THP-1, serum free media, one hour treatment
Description: (§5) Peptides were assayed for potential in vitro toxicity against human keratinocytes (HaCaT) and THP-1 cells as previously described. THP-1 monocytes were differentiated into macrophages by adding 30 ng/mL of phorbol 12-myristate 13-acetate (PMA; Sigma-Aldrich) to RPMI 1640 supplemented with 10% fetal calf serum culture (FCS) medium for 16 h. Briefly, cells were seeded at a density of 3 × 10^4 per well in a tissue culture 96-well plate in DMEM/RPMI supplemented with 10% fetal bovine serum (FBS), and incubated at 37 °C in a 5% CO2 atmosphere for 24 h. African green monkey kidney Vero E6 cells were cultivated in EMEM in the same manner. Before antimicrobial treatment, wells were replaced with serum free media and treated with peptides at different concentrations for one hour. After incubation, the cells were washed and incubated with 100 μL of DMEM media containing 20 μL of 3-(4,5-dimethylthiazol-2-yl)-5-(3-carboxymethoxyphenyl)-2-(4-sulfophenyl)-2H-tetrazolium (MTS) reagent for two hours at 37 °C. The treatment time was one hour in the case of Vero E6 cells. Absorbance readings at 492 nm were taken using a ChroMate microplate reader (GMI, Ramsey, MN, USA).

[2] = tested on: human keratinocytes (HaCaT); assay: MTS cytotoxicity assay; assay type: cell-based; settings: serum free media, one hour treatment
Description: as §5

E. faecium VRE = assay type: cell-based
Description: as §1, §2

[3] = tested on: monkey kidney Vero E6 cells; assay type: cell-based
Description: as §5, with “The treatment time was one hour in the case of Vero E6 cells.” left out

A. baumannii B28-16 = assay type: cell-based, Acinetobacter baumannii
Description: as §1, §2

[4] = 2% RBC in PBS, 37 °C, one hour, hemoglobin at 545 nm

## IWWWWLRK [WW297]
S. aureus Mu50; S. aureus Mu50, broth microdilution, 37 °C overnight
  Minimal Inhibitory Concentration (MIC), SA: 6.2 µM
E. coli ATCC 25922; E. coli ATCC 25922, TSB
  MIC, TSB: 12.5 µM
E. coli ATCC 25922; E. coli ATCC 25922, TSB +150 mM NaCl, present during entire experiment
  MIC, +150 mM NaCl: 12.5 µM
E. coli ATCC 25922; E. coli ATCC 25922, TSB +10% human serum, present during entire experiment
  MIC, +10% Human Serum: >25 µM
S. aureus USA300; S. aureus USA300, minimal bactericidal concentration, plating clear wells at MIC or above
  MBC, USA300: 12.5 µM
B. subtilis 167; B. subtilis 167, broth microdilution, 37 °C overnight
  Minimal Inhibitory Concentration (MIC), BS: 12.5 µM
S. aureus USA300 LAC; S. aureus USA300 LAC, TSB
  MIC, TSB: 3.1 µM
S. aureus USA300 LAC; S. aureus USA300 LAC, TSB +150 mM NaCl, present during entire experiment
  MIC, +150 mM NaCl: 3.1 µM
S. aureus USA300 LAC; S. aureus USA300 LAC, TSB +10% human serum, present during entire experiment
  MIC, +10% Human Serum: 25 µM
Chicken red blood cells; [4]
  Chicken RBC, concentration that caused 50% red blood cell lysis (HC50): 100 µM
Pig RBC; [4]
  Pig RBC, concentration that caused 50% red blood cell lysis (HC50): 110 µM
Human red blood cells; [4]
  Human RBC, concentration that caused 50% red blood cell lysis (HC50): 134 µM
E. coli K12; E. coli K12, broth microdilution, 37 °C overnight
  Minimal Inhibitory Concentration (MIC), EC: 12.5 to 25 µM
P. aeruginosa PAO1; P. aeruginosa PAO1, broth microdilution, 37 °C overnight
  Minimal Inhibitory Concentration (MIC), PA: 50 µM
[1]
  THP-1, concentration that caused 50% cell death (LC50): 38 µM
[2]
  HaCaT, concentration that caused 50% cell death (LC50): 100 µM
E. faecium VRE; E. faecium VRE, broth microdilution, 37 °C overnight
  Minimal Inhibitory Concentration (MIC), VRE: 12.5 µM
[3]; Vero E6, serum free media, one hour treatment, MTS assay
  Vero Cells, concentration that caused 50% cell death (LC50): >100 µM
A. baumannii B28-16; A. baumannii B28-16, broth microdilution, 37 °C overnight
  Minimal Inhibitory Concentration (MIC), AB: 6.25 to 12.5 µM

## WLRKIWWW [WW293]
S. aureus Mu50; Mu50
  Minimal Inhibitory Concentration (MIC), SA: 12.5 µM
E. coli ATCC 25922; ATCC 25922
  MIC, +150 mM NaCl: >25 µM
  MIC, +10% Human Serum: >25 µM
  MIC, TSB: 12.5 µM
S. aureus USA300; USA300
  MBC, USA300: 25 µM
B. subtilis 167; 167
  Minimal Inhibitory Concentration (MIC), BS: 12.5 µM
S. aureus USA300 LAC; USA300
  MIC, +150 mM NaCl: 6.2 µM
  MIC, +10% Human Serum: >25 µM
  MIC, TSB: 6.2 µM
Chicken red blood cells
  Chicken RBC, concentration that caused 50% red blood cell lysis (HC50): >100 µM
Pig RBC
  Pig RBC, concentration that caused 50% red blood cell lysis (HC50): >100 µM
Human red blood cells; red cells of human
  Human RBC, concentration that caused 50% red blood cell lysis (HC50): 224 µM
E. coli K12; K12
  Minimal Inhibitory Concentration (MIC), EC: 12.5 to 25 µM
P. aeruginosa PAO1; PAO1
  Minimal Inhibitory Concentration (MIC), PA: 50 µM
[1]
  THP-1, concentration that caused 50% cell death (LC50): >100 µM
[2]
  HaCaT, concentration that caused 50% cell death (LC50): >100 µM
E. faecium VRE; VRE
  Minimal Inhibitory Concentration (MIC), VRE: 50 µM
[3]
  Vero Cells, concentration that caused 50% cell death (LC50): >100 µM
A. baumannii B28-16; B28-16
  Minimal Inhibitory Concentration (MIC), AB: 12.5 µM
